Experimental data: patent publication US10799605B2 (3B PHARMACEUTICALS GMBH, priority 2014, dated 2020)
pKi: −log10 of the molar value.

Experiments:
5-HT2B (h) = 5-HT2B (h) (Homo sapiens (Human), UniProt P41595); assay: ExpresSProfile: 5-hydroxytryptamine receptor 2B, agonist radioligand; type: binding; settings: Reference Compound
NTR1 [1] = biological target: T1, NTR1 (Homo sapiens (Human), UniProt P30989); assay: Functional Ca2+ mobilisation assay (example part II); type: cell-based; settings: antagonist assay
T1 sequence (P30989 whole entry): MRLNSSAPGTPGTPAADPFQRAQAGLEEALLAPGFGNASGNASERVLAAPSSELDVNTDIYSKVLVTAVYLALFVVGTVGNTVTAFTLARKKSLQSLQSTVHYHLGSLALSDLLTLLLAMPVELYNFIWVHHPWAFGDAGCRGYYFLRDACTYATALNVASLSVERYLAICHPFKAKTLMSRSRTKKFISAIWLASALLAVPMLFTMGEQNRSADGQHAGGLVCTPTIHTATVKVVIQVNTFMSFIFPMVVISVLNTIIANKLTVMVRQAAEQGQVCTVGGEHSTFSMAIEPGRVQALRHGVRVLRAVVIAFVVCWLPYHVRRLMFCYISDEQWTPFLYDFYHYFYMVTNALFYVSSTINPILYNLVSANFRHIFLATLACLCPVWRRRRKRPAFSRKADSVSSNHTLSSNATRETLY
Text: Ca^2+ ions are usually kept at nanomolar levels in the cytosol of cells, and act in a number of signal transduction pathways as second messengers. […] Changes in calcium ion concentration in standard assay protocols can be readily detected with fluorescent dyes that emit light when changes in intracellular Ca2^+ ion concentration occur. Given the transient nature of these responses, they are often read with instrumentation that has ‘inject and read’ capability.
HT29 or NTR1-expressing HEK293 cells were trypsinized and seeded into black flat clear-bottom 96-well plates (Corning, Amsterdam, The Netherlands) at 6×10^5 cells per well. After 24 h incubation at 37° C. and 5% CO2, cells were washed twice with wash buffer (130 mM NaCl, 5 mM KCl, 10 mM Hepes, 2 mM CaCl2, 10 mM Glucose, pH 7.4) and loaded with 100 μl of Ca5 dye (Molecular Devices, Biberach, Germany) for 1 h at 37° C. and 5% CO2. For agonist assays, serial dilutions of agonistic substances were added to the cells loaded with dye and the change of the fluorescent signal was recorded continually for approx. 90 s using a FlexStation II (Molecular Devices, Biberach, Germany). Addition of wash buffer served as a control. Thus, EC50 concentrations for each compound were computed and provided a measure for the potency of the substance. For antagonist assays, cells loaded with 100 μl of Ca5-dye were pre-incubated with serial dilutions of antagonistic substances for 30 min, before the EC80-concentration of agonist was added to the cells and the change of the fluorescent signal was recorded continually for approx. 90 s. Thus, IC50 concentrations were computed for each compound and provided a measure for the inhibitory activity of the compounds at the NTR1.

NTR1 [2] = biological target: T1, NTR1; assay: Radioligand binding assay NTR1 (example part II); settings: 0.05 nM 125I-(Tyr3-neurotensin), 60 min at 4° C.; read-out: IC50 [nM] RLB
Protocol: In order to determine the binding affinity of compounds comprising a radiolabel for NTR1, a radioligand binding assay was carried out. A radioligand is a radioactive biochemical substance that is used for diagnosis or for research-oriented study of cellular receptor systems of the body. In […] systems it is often used to quantify the binding of a test molecule to the binding site of radioligand. The higher the affinity of the molecule, the more radioligand is displaced from the binding site. The amount of bound radioligand can be measured by scintillation counting and thereby quantified. This assay is commonly used to calculate binding constants of molecules to receptors.
The NTR1 radioligand binding assay was performed by Cerep (Celle l'Evescault, France; Catalog reference 0109) according to Vita et al., FEBS Lett., 1993, 317, 139-142. NTR1 was prepared from CHO cells recombinantly expressing the human receptor and incubated with 0.05 nM ^125I-(Tyr^3-neurotensin) and serial dilutions of the test compounds. […] The result for each test compound is expressed as IC50 concentration and provides a measure for the affinity of the test compound for NTR1.

dopamine transporter (h) = dopamine transporter (h) (Homo sapiens (Human), UniProt Q01959); assay: ExpresSProfile: dopamine transporter, antagonist radioligand; type: binding; settings: Reference Compound
CB1 (h) = CB1 (h) (Homo sapiens (Human), UniProt P21554); assay: ExpresSProfile: cannabinoid receptor 1, agonist radioligand; type: binding; settings: Reference Compound
M3 (h) = M3 (h) (Homo sapiens (Human), UniProt P20309); assay: ExpresSProfile: muscarinic receptor 3, antagonist radioligand; type: binding; settings: Reference Compound
mu (MOP) (h) = mu (MOP) (h) (Homo sapiens (Human), UniProt P35372); assay: ExpresSProfile: mu opioid receptor, agonist radioligand; type: binding; settings: Reference Compound
GABA (non-selective) = assay: ExpresSProfile: GABA, agonist radioligand; type: binding; settings: Reference Compound
5-HT3 (h) = 5-HT3 (h) (Homo sapiens (Human), UniProt P46098); assay: ExpresSProfile: 5-hydroxytryptamine channel 3, antagonist radioligand; type: binding; settings: Reference Compound
5-HT3 (h), sequence (P46098 24-478): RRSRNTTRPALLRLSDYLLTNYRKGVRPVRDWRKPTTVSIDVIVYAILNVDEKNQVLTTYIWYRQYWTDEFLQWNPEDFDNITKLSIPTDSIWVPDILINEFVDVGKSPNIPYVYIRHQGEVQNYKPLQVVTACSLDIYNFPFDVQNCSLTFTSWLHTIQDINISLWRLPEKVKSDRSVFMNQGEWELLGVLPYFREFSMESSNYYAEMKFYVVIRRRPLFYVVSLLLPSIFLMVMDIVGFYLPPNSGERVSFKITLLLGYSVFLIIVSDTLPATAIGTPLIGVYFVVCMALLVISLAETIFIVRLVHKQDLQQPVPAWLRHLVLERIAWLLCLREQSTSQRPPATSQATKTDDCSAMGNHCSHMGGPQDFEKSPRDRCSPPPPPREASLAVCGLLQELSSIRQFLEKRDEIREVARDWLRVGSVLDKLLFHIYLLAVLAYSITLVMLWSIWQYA

B2 (h) = B2 (h) (Homo sapiens (Human), UniProt P30411); assay: ExpresSProfile: bradykinin receptor 2, agonist radioligand; type: binding; settings: Reference Compound
EP4 (h) = EP4 (h) (Homo sapiens (Human), UniProt P35408); assay: ExpresSProfile: prostaglandin e receptor type 4, agonist radioligand; type: binding; settings: Reference Compound
NK3 (h) = NK3 (h) (Homo sapiens (Human), UniProt P29371); assay: ExpresSProfile: neurokinin receptor 3, antagonist radioligand; type: binding; settings: Reference Compound
D1 (h) = D1 (h) (Homo sapiens (Human), UniProt P21728); assay: ExpresSProfile: dopamine receptor 1, antagonist radioligand; type: binding; settings: Reference Compound
D1 (h), sequence (P21728 whole entry): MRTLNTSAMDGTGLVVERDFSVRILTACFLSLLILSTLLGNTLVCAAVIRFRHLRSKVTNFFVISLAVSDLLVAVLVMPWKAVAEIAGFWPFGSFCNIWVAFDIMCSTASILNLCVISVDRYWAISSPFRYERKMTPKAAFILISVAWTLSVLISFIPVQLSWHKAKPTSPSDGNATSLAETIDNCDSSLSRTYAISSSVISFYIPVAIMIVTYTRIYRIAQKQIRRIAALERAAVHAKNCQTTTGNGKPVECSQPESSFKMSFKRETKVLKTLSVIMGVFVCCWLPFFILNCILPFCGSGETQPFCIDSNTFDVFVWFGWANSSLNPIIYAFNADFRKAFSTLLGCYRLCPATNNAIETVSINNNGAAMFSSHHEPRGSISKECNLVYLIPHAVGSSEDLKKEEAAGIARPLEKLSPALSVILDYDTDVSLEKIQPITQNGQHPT

NK2 (h) = NK2 (h) (Homo sapiens (Human), UniProt P21452); assay: ExpresSProfile: neurokinin receptor 2, agonist radioligand; type: binding; settings: Reference Compound
NK2 (h), sequence (P21452 whole entry): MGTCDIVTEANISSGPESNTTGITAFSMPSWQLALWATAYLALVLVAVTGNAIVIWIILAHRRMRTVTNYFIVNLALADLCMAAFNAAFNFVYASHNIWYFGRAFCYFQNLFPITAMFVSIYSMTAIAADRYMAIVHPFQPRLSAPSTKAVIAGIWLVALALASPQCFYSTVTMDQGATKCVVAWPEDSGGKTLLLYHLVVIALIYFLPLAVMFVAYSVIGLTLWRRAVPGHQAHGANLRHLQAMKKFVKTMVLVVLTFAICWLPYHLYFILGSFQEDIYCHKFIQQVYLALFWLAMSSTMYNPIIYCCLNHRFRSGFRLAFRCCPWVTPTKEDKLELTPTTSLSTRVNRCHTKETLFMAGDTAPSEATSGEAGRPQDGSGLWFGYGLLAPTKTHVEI

SKCa channel = assay: ExpresSProfile: SKCa channel, antagonist radioligand; type: binding; settings: Reference Compound
beta 1 (h) = beta 1 (h) (Homo sapiens (Human), UniProt P08588); assay: ExpresSProfile: beta1 adrenergic receptor, agonist radioligand; type: binding; settings: Reference Compound
BZD (central) = assay: ExpresSProfile: benzodiazepine, agonist radioligand; type: binding; settings: Reference Compound
5-HT2A (h) = 5-HT2A (h) (Homo sapiens (Human), UniProt P28223); assay: ExpresSProfile: 5-hydroxytryptamine receptor 2A, antagonist radioligand; type: binding; settings: Reference Compound
MT1 (ML1A) (h) = MT1 (ML1A) (h) (Homo sapiens (Human), UniProt P48039); assay: ExpresSProfile: melatonin receptor 1, agonist radioligand; type: binding; settings: Reference Compound
MT1 (ML1A) (h), sequence (P48039 whole entry): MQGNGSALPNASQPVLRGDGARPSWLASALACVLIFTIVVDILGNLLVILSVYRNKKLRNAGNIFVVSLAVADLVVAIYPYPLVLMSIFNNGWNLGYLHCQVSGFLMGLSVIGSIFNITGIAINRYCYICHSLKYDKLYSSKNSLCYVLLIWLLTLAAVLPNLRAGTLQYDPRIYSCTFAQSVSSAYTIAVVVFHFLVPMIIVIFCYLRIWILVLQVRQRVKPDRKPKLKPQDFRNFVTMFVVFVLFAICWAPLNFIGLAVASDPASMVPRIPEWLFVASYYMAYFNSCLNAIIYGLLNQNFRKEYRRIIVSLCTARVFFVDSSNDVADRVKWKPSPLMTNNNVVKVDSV

M2 (h) = M2 (h) (Homo sapiens (Human), UniProt P08172); assay: ExpresSProfile: muscarinic receptor 2, antagonist radioligand; type: binding; settings: Reference Compound
M2 (h), sequence (P08172 whole entry): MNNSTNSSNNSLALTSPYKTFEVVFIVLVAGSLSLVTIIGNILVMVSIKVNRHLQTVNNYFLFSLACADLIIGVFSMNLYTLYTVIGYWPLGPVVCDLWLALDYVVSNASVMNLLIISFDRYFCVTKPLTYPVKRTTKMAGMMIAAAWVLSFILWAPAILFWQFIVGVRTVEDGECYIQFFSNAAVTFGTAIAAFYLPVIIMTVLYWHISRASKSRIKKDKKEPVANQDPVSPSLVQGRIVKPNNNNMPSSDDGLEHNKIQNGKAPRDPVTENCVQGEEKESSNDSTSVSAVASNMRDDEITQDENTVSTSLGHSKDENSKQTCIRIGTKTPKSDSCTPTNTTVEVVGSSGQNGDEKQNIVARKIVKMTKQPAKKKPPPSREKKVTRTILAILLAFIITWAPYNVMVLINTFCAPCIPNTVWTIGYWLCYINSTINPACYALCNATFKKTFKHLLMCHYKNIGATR

Cl-channel (GABA-gated) = assay: ExpresSProfile: Cl-channel, antagonist radioligand; type: binding; settings: Reference Compound
alpha 1 (non-selective) = assay: ExpresSProfile: alpha1 adrenergic receptor, antagonist radioligand; type: binding; settings: Reference Compound
AT1 (h) = AT1 (h) (Homo sapiens (Human), UniProt P30556); assay: ExpresSProfile: angiotensin receptor 1, antagonist radioligand; type: binding; settings: Reference Compound
AT1 (h), sequence (P30556 whole entry): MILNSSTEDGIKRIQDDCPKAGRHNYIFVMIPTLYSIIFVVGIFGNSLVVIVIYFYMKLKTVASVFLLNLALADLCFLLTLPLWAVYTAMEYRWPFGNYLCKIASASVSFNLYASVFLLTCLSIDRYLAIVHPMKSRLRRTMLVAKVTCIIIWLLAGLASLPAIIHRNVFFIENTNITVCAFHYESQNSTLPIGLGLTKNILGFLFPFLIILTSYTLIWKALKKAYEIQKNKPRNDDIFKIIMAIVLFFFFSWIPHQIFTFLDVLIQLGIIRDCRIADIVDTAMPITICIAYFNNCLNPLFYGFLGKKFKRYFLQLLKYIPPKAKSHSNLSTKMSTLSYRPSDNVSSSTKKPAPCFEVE

5-HT1B = 5-HT1B (Rattus norvegicus, UniProt P28564); assay: ExpresSProfile: 5-hydroxytryptamine receptor 1B, antagonist radioligand; type: binding; settings: Reference Compound
5-HT6 (h) = 5-HT6 (h) (Homo sapiens (Human), UniProt P50406); assay: ExpresSProfile: 5-hydroxytryptamine receptor 6, agonist radioligand; type: binding; settings: Reference Compound
5-HT6 (h), sequence (P50406 whole entry): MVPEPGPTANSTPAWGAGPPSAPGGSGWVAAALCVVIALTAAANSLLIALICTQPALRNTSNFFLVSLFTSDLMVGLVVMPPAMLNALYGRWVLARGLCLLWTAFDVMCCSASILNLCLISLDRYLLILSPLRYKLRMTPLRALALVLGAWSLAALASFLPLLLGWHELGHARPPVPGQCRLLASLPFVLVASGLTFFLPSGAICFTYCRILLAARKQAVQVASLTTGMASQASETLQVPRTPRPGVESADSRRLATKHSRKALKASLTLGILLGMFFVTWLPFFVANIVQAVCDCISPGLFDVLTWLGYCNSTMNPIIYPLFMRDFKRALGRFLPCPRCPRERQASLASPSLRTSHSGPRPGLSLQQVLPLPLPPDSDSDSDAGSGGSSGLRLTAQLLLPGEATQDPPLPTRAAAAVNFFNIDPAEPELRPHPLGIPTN

alpha 2 (non-selective) = assay: ExpresSProfile: alpha2 adrenergic receptor, antagonist radioligand; type: binding; settings: Reference Compound
D2S (h) = D2S (h) (Homo sapiens (Human), UniProt P14416); assay: ExpresSProfile: dopamine receptor 2S, antagonist radioligand; type: binding
D2S (h), sequence (P14416 other isoform, or with tags, fused parts or gaps): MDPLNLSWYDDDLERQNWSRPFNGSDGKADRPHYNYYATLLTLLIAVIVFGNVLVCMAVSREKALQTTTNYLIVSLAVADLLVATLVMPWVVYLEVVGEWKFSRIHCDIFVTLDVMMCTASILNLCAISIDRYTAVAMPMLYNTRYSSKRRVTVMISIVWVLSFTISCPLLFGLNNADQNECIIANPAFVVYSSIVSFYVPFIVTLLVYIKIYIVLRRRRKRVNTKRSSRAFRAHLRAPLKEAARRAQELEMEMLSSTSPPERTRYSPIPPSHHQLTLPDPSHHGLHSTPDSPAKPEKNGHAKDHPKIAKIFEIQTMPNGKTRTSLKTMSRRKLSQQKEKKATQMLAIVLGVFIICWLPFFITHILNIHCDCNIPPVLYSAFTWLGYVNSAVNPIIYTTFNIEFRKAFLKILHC

CXCR2 (IL-8B) (h) = CXCR2 (IL-8B) (h) (Homo sapiens (Human), UniProt P25025); assay: ExpresSProfile: C-X-C chemokine receptor type 2, agonist radioligand; type: binding; settings: Reference Compound
CXCR2 (IL-8B) (h), sequence (P25025 whole entry): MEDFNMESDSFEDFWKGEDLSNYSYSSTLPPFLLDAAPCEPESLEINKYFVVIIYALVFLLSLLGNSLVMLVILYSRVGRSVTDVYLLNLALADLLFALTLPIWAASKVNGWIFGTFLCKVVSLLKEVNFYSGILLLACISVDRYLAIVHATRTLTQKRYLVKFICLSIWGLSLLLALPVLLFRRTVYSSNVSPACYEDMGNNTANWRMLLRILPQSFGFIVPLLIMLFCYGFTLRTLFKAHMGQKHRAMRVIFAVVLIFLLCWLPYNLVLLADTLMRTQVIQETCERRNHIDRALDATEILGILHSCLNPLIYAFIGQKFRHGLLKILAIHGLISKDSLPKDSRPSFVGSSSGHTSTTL

KV channel = assay: ExpresSProfile: KV channel, antagonist radioligand; type: binding; settings: Reference Compound
sst (non-selective) = assay: ExpresSProfile: somatostatin receptor, agonist radioligand; type: binding; settings: Reference Compound

5-HT2B (h), sequence (P41595 whole entry): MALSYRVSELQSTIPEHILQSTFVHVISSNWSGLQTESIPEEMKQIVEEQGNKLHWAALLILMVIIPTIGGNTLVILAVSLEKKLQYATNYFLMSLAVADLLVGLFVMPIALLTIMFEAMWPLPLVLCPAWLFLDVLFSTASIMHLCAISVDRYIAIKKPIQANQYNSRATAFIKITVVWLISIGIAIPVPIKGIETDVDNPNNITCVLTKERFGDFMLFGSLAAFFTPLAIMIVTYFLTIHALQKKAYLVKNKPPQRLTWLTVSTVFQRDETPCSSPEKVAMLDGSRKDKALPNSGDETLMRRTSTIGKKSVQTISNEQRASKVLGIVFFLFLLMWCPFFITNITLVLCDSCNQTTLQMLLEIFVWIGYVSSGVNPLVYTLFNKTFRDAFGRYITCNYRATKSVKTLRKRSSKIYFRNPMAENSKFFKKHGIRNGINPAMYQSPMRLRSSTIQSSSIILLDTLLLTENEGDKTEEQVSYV

COc1cc(CC(C)N)c(OC)cc1I (racemic) [(±)DOI]
nH Ref (5-HT2B (h)): 1.0
pKi (5-HT2B (h); read-out: Ki Ref): 8.51

COc1cccc(OC)c1-c1cc(C(=O)NC2(C(=O)O)C3CC4CC(C3)CC2C4)nn1-c1ccc(C(=O)N(CCCNC(=O)CCC(=O)NCCCOCCOCCOCCCNC(=O)CN2CCN(CC(=O)O)CCN(CC(=O)O)CCN(CC(=O)O)CC2)CCCN(C)C)cc1C(C)C (stereo not drawn) [(Vb), 2-{[5-(2,6-Dimethoxy-phenyl)-1-(4-{(3-dimethylamino-propyl)-[3-(DOTA-Ttds-amino)-propyl]-carbamoyl}-2-isopropyl-phenyl)-1H-pyrazole-3-carbonyl]-amino}-adamantane-2-carboxylic]
IC50 (NTR1 [1]): 26 nM
IC50 (NTR1 [2]): 2.4 nM

c1ccc2sc(C3(N4CCCCC4)CCCCC3)cc2c1 [BTCP]
nH Ref (dopamine transporter (h)): 1.0

CCCCCCC(C)(C)c1ccc([C@@H]2C[C@H](O)CC[C@H]2CCCO)c(O)c1 [CP 55940]
nH Ref (CB1 (h)): 0.8

C[N+]1(C)CCC(OC(=O)C(c2ccccc2)c2ccccc2)CC1.[I-] [Compound 4-DAMP]
nH Ref (M3 (h)): 1.1

C[C@@H](NC(=O)[C@@H](N)Cc1ccc(O)cc1)C(=O)NCC(=O)N(C)[C@@H](Cc1ccccc1)C(=O)NCCO [DAMGO]
nH Ref (mu (MOP) (h)): 1.0

NCCCC(=O)O [GABA, γ-aminobutyric acid, reference compound]
nH Ref (GABA (non-selective)): 0.8

CN1[C@@H]2CC[C@H]1C[C@@H](OC(=O)c1cc(Cl)cc(Cl)c1)C2 [MDL 72222]
nH Ref (5-HT3 (h)): 0.8

N=C(N)NCCC[C@@H](N)C(=O)N[C@@H](CCCNC(=N)N)C(=O)N1CCC[C@H]1C(=O)N1C[C@H](O)C[C@H]1C(=O)NCC(=O)N[C@@H](Cc1ccccc1)C(=O)N[C@@H](CO)C(=O)N[C@H](Cc1ccccc1)C(=O)N[C@@H](Cc1ccccc1)C(=O)N[C@@H](CCCNC(=N)N)C(=O)O [NPC 567]
nH Ref (B2 (h)): 0.9

CCCCC[C@H](O)/C=C/[C@H]1[C@H](O)CC(=O)[C@@H]1C/C=C\CCCC(=O)O [PGE2]
nH Ref (EP4 (h)): 1.1

CC[C@H](NC(=O)c1c(C)c(-c2ccccc2)nc2ccccc12)c1ccccc1 [SB 222200]
nH Ref (NK3 (h)): 0.9

CN1CCc2cc(Cl)c(O)cc2[C@@H](c2ccccc2)C1 [SCH 23390]
nH Ref (D1 (h)): 0.9

CCCC[C@H](NC(=O)[C@H](CC(C)C)NC(=O)CNC(=O)[C@@H](NC(=O)[C@H](Cc1ccccc1)NC(=O)[C@H](CO)NC(=O)[C@@H](N)CC(=O)O)C(C)C)C(N)=O [[Nleu10]-NKA (4-10)]
nH Ref (NK2 (h)): 0.8

CC(C)C[C@@H]1NC(=O)[C@H](C)NC(=O)[C@H]([C@@H](C)O)NC(=O)[C@H](CCC(=O)O)NC(=O)[C@@H]2CCCN2C(=O)[C@H](C)NC(=O)[C@H](CCCCN)NC(=O)[C@@H]2CSSC[C@@H](C(=O)N[C@@H](CCC(N)=O)C(=O)N[C@@H](CCC(N)=O)C(=O)N[C@@H](Cc3cnc[nH]3)C(N)=O)NC(=O)[C@H](CCCNC(=N)N)NC(=O)[C@H](CCCNC(=N)N)NC(=O)[C@H](C)NC(=O)[C@H](CSSC[C@H](N)C(=O)N[C@@H](CC(N)=O)C(=O)N2)NC1=O [apamin]
nH Ref (SKCa channel): 1.3

CC(C)NCC(O)COc1ccc(CC(N)=O)cc1 (stereo not drawn) [atenolol]
nH Ref (beta 1 (h)): 0.9

CN1C(=O)CN=C(c2ccccc2)c2cc(Cl)ccc21 [diazepam]
nH Ref (BZD (central)): 1.1

O=C(c1ccc(F)cc1)C1CCN(CCn2c(=O)[nH]c3ccccc3c2=O)CC1 [ketanserin]
nH Ref (5-HT2A (h)): 1.0

COc1ccc2[nH]cc(CCNC(C)=O)c2c1 [melatonin]
nH Ref (MT1 (ML1A) (h)): 0.9

COc1ccccc1CNCCCCCCNCCCCCCCCNCCCCCCNCc1ccccc1OC [methoctramine]
nH Ref (M2 (h)): 0.9

C=C(C)[C@@H]1[C@H]2OC(=O)[C@@H]1[C@]1(O)C[C@H]3O[C@]34C(=O)O[C@H]2[C@]14C [picrotoxinin]
nH Ref (Cl-channel (GABA-gated)): 0.9

COc1cc2nc(N3CCN(C(=O)c4ccco4)CC3)nc(N)c2cc1OC [prazosin]
nH Ref (alpha 1 (non-selective)): 1.2

CNCC(=O)N[C@@H](CCCN=C(N)N)C(=O)N[C@H](C(=O)N[C@@H](Cc1ccc(O)cc1)C(=O)N[C@H](C(=O)N[C@@H](Cc1cnc[nH]1)C(=O)N1CCC[C@H]1C(=O)N[C@@H](C)C(=O)O)C(C)C)C(C)C [saralasin]
nH Ref (AT1 (h)): 0.6

NCCc1c[nH]c2ccc(O)cc12 [serotonin]
nH Ref (5-HT1B): 0.9
nH Ref (5-HT6 (h)): 0.8

COC(=O)[C@@H]1[C@H]2C[C@H]3c4[nH]c5ccccc5c4CCN3C[C@@H]2CC[C@@H]1O [yohimbine]
nH Ref (alpha 2 (non-selective)): 0.7

(+)butaclamol
nH Ref (D2S (h)): 1.0

IL-8
nH Ref (CXCR2 (IL-8B) (h)): 1.4

alpha-dendrotoxin (QPRRKLCILHRNPGRCYDKIPAFYYNQKKKQCERFDWSGCGGNSNRFKTIEECRRTCIG)
nH Ref (KV channel): 1.7
pKi (KV channel; read-out: Ki Ref): 9.70

somatostatin-14
nH Ref (sst (non-selective)): 0.8
pKi (sst (non-selective); read-out: Ki Ref): 9.96
